Active and inactive are the calls of the source.
Legend:
[1] = tested on: Streptococcus sp. 'group A'; test: Streptococcus pyogenes SK(-)GAS viability under kanamycin – luminescence, BacTiterGlo, confirmation, counter-screen for streptokinase expression inhibitor project, dose response (AID 1900); format: functional, organism-based
Streptokinase A = biological target: T1, Streptokinase A (Streptococcus pyogenes serotype M1, UniProt P10520); test: viability-normalized secreted streptokinase activity reduction – plasminogen activation absorbance, OD405, dose response (AID 1914); format: functional, Streptococcus pyogenes M1 GAS;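 further: secreted streptokinase activity via plasminogen activation per viability signal from cell pellet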
T1 sequence (P10520 whole entry): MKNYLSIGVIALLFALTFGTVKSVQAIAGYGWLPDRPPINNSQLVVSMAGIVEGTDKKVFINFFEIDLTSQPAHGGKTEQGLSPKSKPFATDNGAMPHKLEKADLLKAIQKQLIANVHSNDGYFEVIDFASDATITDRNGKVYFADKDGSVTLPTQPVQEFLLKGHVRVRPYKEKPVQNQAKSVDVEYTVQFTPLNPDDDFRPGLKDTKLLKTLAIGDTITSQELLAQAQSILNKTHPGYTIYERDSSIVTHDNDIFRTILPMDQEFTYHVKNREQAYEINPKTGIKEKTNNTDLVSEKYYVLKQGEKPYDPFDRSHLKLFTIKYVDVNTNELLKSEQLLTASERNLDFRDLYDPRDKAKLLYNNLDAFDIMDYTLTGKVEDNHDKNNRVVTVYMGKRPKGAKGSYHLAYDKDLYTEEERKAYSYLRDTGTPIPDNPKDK

[2] = CCR5-tropic HIV-1 fusion blockers – cell-based, CCR5-tropic Env, dose response (AID 2279); format: functional
Streptococcus = test: GAS UMAA2166 growth inhibition – luminescence, BacTiterGlo, counter-screen for streptokinase expression inhibitor project, dose response (AID 1915); format: functional, organism-based;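 further: potency for reduction of bacterial viability or growth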
Cysteine protease ATG4B = biological target: T2, Cysteine protease ATG4B (Homo sapiens, UniProt Q9Y4P1); format: functional;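 further: Fluorescence-based dose-response confirmation assay measuring inhibition of ATG4B activity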
T2 sequence (Q9Y4P1 whole entry): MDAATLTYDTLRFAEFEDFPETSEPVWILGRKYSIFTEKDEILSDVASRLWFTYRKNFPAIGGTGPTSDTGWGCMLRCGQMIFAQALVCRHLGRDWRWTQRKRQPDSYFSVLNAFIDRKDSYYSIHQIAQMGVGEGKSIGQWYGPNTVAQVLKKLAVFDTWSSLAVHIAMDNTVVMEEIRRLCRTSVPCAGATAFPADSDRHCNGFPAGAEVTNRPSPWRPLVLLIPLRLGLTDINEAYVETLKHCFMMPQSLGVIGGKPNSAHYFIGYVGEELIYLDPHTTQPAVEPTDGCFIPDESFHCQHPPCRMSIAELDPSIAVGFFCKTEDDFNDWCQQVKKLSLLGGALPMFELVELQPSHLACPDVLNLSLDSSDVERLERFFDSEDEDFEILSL

Phospholipase A2 = Phospholipase A2 (Homo sapiens, UniProt P04054); format: functional;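 further: confirmatory dose-response counterscreen on phospholipase A2, testing hits that came from an ultra-high-throughput screen for ATG4B inhibitors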
Sequence of Phospholipase A2 (P04054 whole entry): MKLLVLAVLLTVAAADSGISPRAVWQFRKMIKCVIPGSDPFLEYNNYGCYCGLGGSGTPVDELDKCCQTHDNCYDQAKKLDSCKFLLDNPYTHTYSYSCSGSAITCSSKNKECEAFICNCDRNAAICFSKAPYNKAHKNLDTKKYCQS

HeLa = test: ATP-based viability loss in HeLa cells – cell-based, CellTiter-Glo luminescence, cherry-pick samples, cytotoxicity control for MITF activator project, dose response (AID 540259); format: functional; details: Homo sapiens
[3] = biological target: T3, Adenosylmethionine-8-amino-7-oxononanoate aminotransferase (Mycobacterium tuberculosis, UniProt P9WQ81); test: Mycobacterium tuberculosis BioA enzyme inhibitor Measured in Biochemical System Using Plate Reader - 2163-02_Inhibitor_Dose_CherryPick_Activity.; format: functional, Mycobacterium tuberculosis UT205
T3 sequence (P9WQ81 whole entry): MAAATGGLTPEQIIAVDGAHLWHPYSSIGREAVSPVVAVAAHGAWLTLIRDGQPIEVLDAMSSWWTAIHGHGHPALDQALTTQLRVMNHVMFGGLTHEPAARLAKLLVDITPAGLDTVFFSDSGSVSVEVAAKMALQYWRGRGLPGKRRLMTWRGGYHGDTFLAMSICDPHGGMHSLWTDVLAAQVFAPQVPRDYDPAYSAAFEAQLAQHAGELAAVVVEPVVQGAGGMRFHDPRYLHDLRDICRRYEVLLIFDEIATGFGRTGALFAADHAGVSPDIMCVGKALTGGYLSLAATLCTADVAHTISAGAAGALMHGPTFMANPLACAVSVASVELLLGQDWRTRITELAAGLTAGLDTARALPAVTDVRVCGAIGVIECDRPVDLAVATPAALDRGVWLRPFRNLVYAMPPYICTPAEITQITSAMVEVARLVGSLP

[4] = NIH-3T3 fibroblast cytotoxicity, dose response, cytotoxicity control, cell-based, fluorescence, Alamar Blue, secondary assay (AID 2327); format: functional;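 further: NIH-3T3 mouse fibroblasts cultured with fluconazole at 8 µg/mL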
[5] = luciferase reporter signal suppression in cells – H4 neuroglioma cells, luminescence, dose response (AID 1990); format: functional, cell-based
[6] = Luminescence Cell-Based Dose Response HTS to Identify Inhibitors of 5'UTR Stem-Loop Driven Prion Protein mRNA Translation in H4 Neuroglioblastoma Cells. [Related pubchem assays: 1827 (Project Summary), 1813 (Primary HTS)]; format: functional
[7] = alpha-synuclein stem-loop luciferase translation blockers – H4 neuroglioma cells, luminescence, confirmation (AID 1988); format: functional, cell-based
[8] = fluconazole-exposed Candida albicans growth modulators – fluorescence, retest, confirmation (AID 2467); format: functional, cell-based
Nonstructural protein 1 = Nonstructural protein 1 (Influenza A virus, UniProt Q194T2); format: functional, Influenza A virus (A/California/07/2009(H1N1))
Sequence of Nonstructural protein 1 (Q194T2 whole entry): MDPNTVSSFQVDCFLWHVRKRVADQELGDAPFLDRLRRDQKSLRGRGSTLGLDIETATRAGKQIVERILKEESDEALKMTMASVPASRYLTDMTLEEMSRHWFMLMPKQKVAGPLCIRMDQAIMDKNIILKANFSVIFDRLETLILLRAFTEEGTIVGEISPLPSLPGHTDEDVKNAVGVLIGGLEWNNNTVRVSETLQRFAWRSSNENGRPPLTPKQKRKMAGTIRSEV

[9] = biological target: FAD-linked sulfhydryl oxidase ALR (Homo sapiens, UniProt P55789); test: ALR-catalysed DTT oxidation blockers – biochemical, H2O2 detection, luminescence, cherry-pick, dose response (AID 493248)
Sequence of FAD-linked sulfhydryl oxidase ALR (P55789 whole entry): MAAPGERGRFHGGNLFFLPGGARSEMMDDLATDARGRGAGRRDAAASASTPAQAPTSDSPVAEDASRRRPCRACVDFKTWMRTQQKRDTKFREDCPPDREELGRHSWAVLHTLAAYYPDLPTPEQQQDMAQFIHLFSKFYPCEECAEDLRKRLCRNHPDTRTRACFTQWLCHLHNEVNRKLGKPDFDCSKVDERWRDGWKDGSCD

[10] = reduction of Shn3 3'UTR-driven luciferase in osteoblasts – cell-based, Clone20 osteoblasts, firefly luciferase, cherry-picked, dose response (AID 624132); format: functional;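 further: firefly luciferase luminescence from reporter carrying the Shn3 3'UTR in osteoblasts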
[11] = loss of viability in HepG2 cells – cell-based, CellTiter-Glo, cherry-picked, cytotoxicity control for Shn3 inhibitor project, dose response (AID 624134); format: functional
[12] = non-specific 3'UTR reporter inhibition in Clone20-Shn3RL – cell-based, Renilla luciferase, cherry-picked, counter-screen for Shn3 inhibitor project, dose response (AID 624133); format: functional
HEK293 = test: EBV LMP1 TES2 canonical NF-kB signalling blockers – cell-based, HEK293, luciferase, cherry-pick, dose response (AID 588343); format: functional; details: Homo sapiens
[13] = biological target: T4, Corticotropin-releasing factor receptor 2/Corticotropin-releasing factor-binding protein (Homo sapiens, UniProt P24387+Q13324); test: activators of CRF receptor 2 with binding protein – uHTS hits, confirmation (AID 602473); format: functional; details: read-out: EC50_Mean
T4 sequence (Q13324 whole entry): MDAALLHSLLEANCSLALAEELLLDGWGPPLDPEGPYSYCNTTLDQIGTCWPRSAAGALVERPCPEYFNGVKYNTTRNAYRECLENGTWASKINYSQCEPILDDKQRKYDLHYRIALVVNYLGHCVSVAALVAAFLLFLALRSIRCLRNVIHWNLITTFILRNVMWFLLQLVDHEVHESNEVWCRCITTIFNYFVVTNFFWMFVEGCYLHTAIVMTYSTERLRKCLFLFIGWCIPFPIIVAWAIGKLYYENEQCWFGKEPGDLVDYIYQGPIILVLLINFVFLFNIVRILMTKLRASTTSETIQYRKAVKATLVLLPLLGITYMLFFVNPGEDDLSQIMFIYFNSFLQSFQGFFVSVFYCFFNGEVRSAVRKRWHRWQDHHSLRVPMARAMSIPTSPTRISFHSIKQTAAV
T4 sequence (P24387 whole entry): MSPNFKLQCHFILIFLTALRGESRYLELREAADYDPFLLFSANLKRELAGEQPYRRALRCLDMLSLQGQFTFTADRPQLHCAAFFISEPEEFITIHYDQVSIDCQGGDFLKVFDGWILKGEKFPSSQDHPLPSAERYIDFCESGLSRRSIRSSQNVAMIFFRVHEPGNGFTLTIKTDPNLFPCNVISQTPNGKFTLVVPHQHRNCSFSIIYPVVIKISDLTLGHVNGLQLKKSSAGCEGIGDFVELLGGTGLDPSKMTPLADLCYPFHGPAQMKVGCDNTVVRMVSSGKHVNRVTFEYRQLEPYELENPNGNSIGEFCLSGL

[14] = TNFa-induced NF-kB reporter signal decrease – HEK293 LMP1 reporter cells, dry powder, set 2, selectivity assay for EBV LMP1 NF-kB inhibitor project, dose response (AID 624369); format: functional
[15] = biological target: T5, Sentrin-specific protease 8 (Homo sapiens, UniProt Q96LD8); format: functional
T5 sequence (Q96LD8 whole entry): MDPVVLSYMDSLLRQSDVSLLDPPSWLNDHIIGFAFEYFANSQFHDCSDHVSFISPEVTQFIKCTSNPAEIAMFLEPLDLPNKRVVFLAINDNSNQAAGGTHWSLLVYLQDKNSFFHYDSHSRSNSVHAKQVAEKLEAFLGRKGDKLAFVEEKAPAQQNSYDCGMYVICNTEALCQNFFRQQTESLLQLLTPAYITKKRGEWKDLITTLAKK

[16] = biological target: T5, Sentrin-specific protease 8; format: functional; remark: listed apart in the source
[17] = biological target: Heat shock protein HSP 90-alpha (Homo sapiens, UniProt P07900); format: functional, organism-based

Question: Which results are given for O=C(O)c1cc(-c2ccc(-c3c(-c4ccc5c(c4)OCO5)noc3-c3ccsc3)cc2)nc2ccccc12?
Answer: EC50 [1]: 1.85 µM (active); EC50 (Streptokinase A): > 150 µM (not active); IC50 [2]: 37.7 µM (active); EC50 (Streptococcus): 3.63 µM (active); IC50 (Cysteine protease ATG4B): 6.81 µM (active); IC50 (Phospholipase A2): 2.26 µM (active); AC50 (HeLa): 52.5 µM (active)

Question: Which AC50 [3] does the source give for O=C(c1ccncc1)N1CC[C@@H]2[C@H]1c1cc(Br)ccc1N[C@@H]2CO here?
Answer: 0.894 µM (active)

Question: Which EC50 [4] does the source give for Cc1ccc(S(=O)(=O)Nc2ccc(O)c3ncccc23)cc1 here?
Answer: 28.4 µM (active)

Question: What about the EC50 [5] of the same compound?
Answer: 15.1 µM (active)

Question: And the EC50 [6]?
Answer: > 30 µM (not active)

Question: And the EC50 [7]?
Answer: 10.6 µM (active)

Question: And the EC50 [8]?
Answer: 2.12 µM (inconclusive)

Question: What about the IC50 (Nonstructural protein 1) of the same compound?
Answer: 16 µM (active)

Question: And the AC50 [9]?
Answer: 5.2 µM (active)

Question: What about the AC50 [10] of the same compound?
Answer: 1.55 µM (active)

Question: What about the AC50 [11] of the same compound?
Answer: 41.4 µM (active)

Question: What about the AC50 [12] of the same compound?
Answer: 0.715 µM (active)

Question: What does the source list for COc1ccc(C=Cc2ccc3ccccc3n2)c(OC)c1?
Answer: AC50 (HEK293): 14.5 µM (active); EC50 [13]: > 53 µM (inactive)

Question: With C[C@@H]1CN([C@H](C)CO)S(=O)(=O)c2ccc(/C=C/c3ccccc3)cc2O[C@H]1CN(C)C(=O)NC1CCCCC1 as the compound, how does the AbsAC35 [14] read?
Answer: 64.61 µM

Question: With O=C(CS(=O)(=O)Cc1ccccc1)N1CCc2ccccc2C1 as the compound, how does the IC50 [15] read?
Answer: 11.4 µM (active)

Question: What about the IC50 [16] of the same compound?
Answer: 6.67 µM (active)

Question: What does the source list for O=C(Oc1c(Cl)cc(Cl)c2cccnc12)c1cccc([N+](=O)[O-])c1?
Answer: EC50 [4]: 5.41 µM (active); EC50 [8]: 0.119 µM (active); AC50 (HEK293): 30.6 µM (active); AC50 [17]: 14.3 µM (active)

Question: With CCCOc1ccc2c3c(c(=O)oc2c1OCCC)CCC3 as the compound, how does the IC50 (Cysteine protease ATG4B) read?
Answer: 11.4 µM (active)

Question: And the IC50 (Phospholipase A2)?
Answer: 7.13 µM (active)

Question: What about the AC50 [3] of the same compound?
Answer: 14.7 µM (active)
